Reference: patent US20040009569A1, “Kinase crystal structures and materials and methods for kinase activation” (priority 2001, published 2004)
Peptide text beside a SMILES is read from it.

Experiments:
ΔPH-PKB-ΔC = molecular target: T1, ΔPH-PKB-ΔC (Homo sapiens, UniProt P31751); assay: Isothermal titration calorimetry, peptide binding to ΔPH-PKB-ΔC
T1 construct: ΔPH-PKB-ΔC(residues 146 to 460, not phosphorylated on Thr-309); 6xHis (N, cleaved yes); made in house; host or cells: Sf9 insect cells / baculovirus (pFastBacHTa)
Protocol: (§1) (C) Isothermal titration calorimetry measurements of the binding of PIFtide to pΔPH-PKB-ΔC (left) and ΔPH-PKB-ΔC (right). Upper panel, raw data of the titration of PIFtide into pΔPH-PKB-ΔC. Lower panel, integrated heats of injections, corrected for the heat of dilution, with the solid line corresponding to the best fit of the data using the MicroCal software.
(§2) Using isothermal titration calorimetry, the affinity between PIFtide and both pΔPH-PKB-ΔC and ΔPH-PKB-ΔC was determined (FIG. 5C). […] The observed large decrease in entropy is […] typical of protein-peptide interactions, for example SH2-domain-phosphotyrosine peptide complexes (Ladbury et al., 1996), and is consistent with an ordering of both the protein, presumably the αB- and αC-helices of the N-lobe, and peptide on complex formation.

PDK1 [1] = molecular target: T2, PDK1 (Homo sapiens, UniProt O15530); settings: cited from earlier work
T2 sequence (O15530 1-556): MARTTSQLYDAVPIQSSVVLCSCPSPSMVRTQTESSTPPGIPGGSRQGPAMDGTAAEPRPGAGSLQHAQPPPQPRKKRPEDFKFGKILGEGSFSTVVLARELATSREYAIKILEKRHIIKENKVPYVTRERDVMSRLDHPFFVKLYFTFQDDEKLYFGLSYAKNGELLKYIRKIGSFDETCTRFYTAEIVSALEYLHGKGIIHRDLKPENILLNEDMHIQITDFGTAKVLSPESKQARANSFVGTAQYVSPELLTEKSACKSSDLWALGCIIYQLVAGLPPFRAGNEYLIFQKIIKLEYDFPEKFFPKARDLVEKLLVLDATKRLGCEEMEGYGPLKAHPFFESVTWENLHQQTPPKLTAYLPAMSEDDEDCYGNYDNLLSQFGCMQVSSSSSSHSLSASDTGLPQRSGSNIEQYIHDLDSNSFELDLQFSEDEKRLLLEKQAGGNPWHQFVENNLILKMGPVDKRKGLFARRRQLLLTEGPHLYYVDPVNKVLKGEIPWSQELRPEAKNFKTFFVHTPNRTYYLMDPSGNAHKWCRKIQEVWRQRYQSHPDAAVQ

[2] = molecular target: T3, His tagged pΔPH-PKB-ΔC L225A mutant (Homo sapiens, UniProt P31751, L225A); assay: PIFtide responsiveness of hydrophobic groove mutant Leu 225; format: biochemical; settings: 130 μM PIFtide
T3 construct: pΔPH-PKB-ΔC (residues 146 to 460, phosphorylated in vitro on Thr-309); made in house; host or cells: HEK cells (transient expression), purified on Ni-NTA agarose
Protocol: (§3) Mutations of conserved hydrophobic motif residues of PIFtide and PKB HM-peptide reduce or eliminate their potential to activate ΔPH-PKB-ΔC phosphorylated on Thr 309. Mutations of hydrophobic and electrostatic residues of the ΔPH-PKB-ΔC N-lobe hydrophobic groove reduces the stimulation of PKB activity by 130 μM PIFtide.
(§4) To test the notion that a hydrophobic groove is induced in PKB to engage the hydrophobic motif, and activate the kinase, a series of His tagged pΔPH-PKB-ΔC hydrophobic groove mutants were prepared and their responsiveness to PIFtide assessed. PKB mutants were transiently expressed in HEK cells, phosphorylated in vitro with PDK1, and purified using Ni-NTA agarose. […] Wild type PKB prepared using this procedure was stimulated ˜5-fold by 130 μM PIFtide (FIG. 6B).
(§5) PKB was assayed essentially as described by Andjelkovic et al. (1999) with 30 μM Crosstide (GRPRTSSAEG) as substrate except the protein kinase A inhibitor peptide was not added to the reactions. For peptide stimulation experiments the various peptides were dissolved in water and added to the kinase assay mix prior to adding the PKB protein. Peptides were synthesized by Franz Fischer at the FMI or purchased from Neosystem, Strasburg, France.

pΔPH-PKB-ΔC = molecular target: T4, pΔPH-PKB-ΔC (Homo sapiens, UniProt P31751); assay: Isothermal titration calorimetry, peptide binding to pΔPH-PKB-ΔC; settings: ITC; read-out: equilibrium dissociation constant
T4 construct: pΔPH-PKB-ΔC (residues 146 to 460, phosphorylated in vitro on Thr-309); 6xHis (N, cleaved yes); made in house; host or cells: Sf9 insect cells / baculovirus (pFastBacHTa)
Protocol: as §1, §2

[3] = molecular target: T5, His tagged pΔPH-PKB-ΔC R202D mutant (Homo sapiens, UniProt P31751, R202D); assay: PIFtide responsiveness of charge reversal mutant R202D; format: biochemical
T5 construct: pΔPH-PKB-ΔC (residues 146 to 460, phosphorylated in vitro on Thr-309); made in house; host or cells: HEK cells (transient expression), purified on Ni-NTA agarose
Protocol: as §3, §4
Electrostatic interactions are important in defining high affinity PIFtide and PKB HM peptide associations with PKB (FIG. 5B), and form the basis for the increased affinity of the HM for the N-lobe and subsequent activation of PKB by Ser 474 phosphorylation. […] The equivalent residue of PKA, Arg 93, which is also conserved in PKC and PRK2, forms a water-mediated salt bridge to the carboxylate group of Glu 349 (FIG. 2).
PKB was assayed essentially as described by Andjelkovic et al. (1999) with 30 μM Crosstide (GRPRTSSAEG) as substrate except the protein kinase A inhibitor peptide was not added to the reactions. […]

PDK1 [4] = molecular target: T2, PDK1; settings: cited from earlier work; remark: listed apart in the source
[5] = molecular target: T6, pΔPH-PKB-ΔC (PKBβ residues 146 to 460, phosphorylated in vitro on Thr-309) (Homo sapiens, UniProt P31751); assay: Protein kinase B assay with Crosstide as substrate, peptide stimulation of pΔPH-PKB-ΔC; format: biochemical; settings: Crosstide substrate
T6 construct: pΔPH-PKB-ΔC (residues 146 to 460, phosphorylated in vitro on Thr-309); 6xHis (N, cleaved yes); made in house; host or cells: Sf9 insect cells / baculovirus (pFastBacHTa)
Protocol: To test the model that Ser 474 phosphorylation promotes an interaction between the hydrophobic motif and the induced hydrophobic groove of the N-terminal lobe, thereby causing an allosteric activation of the kinase, the ability of peptides modelled on the hydrophobic motif of PKB to activate the enzyme via an intermolecular association with the N-terminal lobe was assessed.
as §5
All experiments were performed in either duplicate or triplicate.

T1 sequence (P31751 146-460, stated change not applied): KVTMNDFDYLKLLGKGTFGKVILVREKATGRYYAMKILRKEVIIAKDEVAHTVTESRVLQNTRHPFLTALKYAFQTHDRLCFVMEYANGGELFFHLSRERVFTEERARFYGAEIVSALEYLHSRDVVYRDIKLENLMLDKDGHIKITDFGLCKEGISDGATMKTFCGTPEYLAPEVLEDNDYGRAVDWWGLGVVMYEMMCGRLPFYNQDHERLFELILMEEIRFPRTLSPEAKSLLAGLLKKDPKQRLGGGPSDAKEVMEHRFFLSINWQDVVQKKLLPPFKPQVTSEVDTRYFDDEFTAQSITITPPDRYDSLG
T6 sequence (P31751 146-460, stated change not applied): as above
T4 sequence (P31751 146-460, stated change not applied): as above
T5 sequence (P31751 146-460 R202D): as the sequence (P31751 146-460, stated change not applied) above, with R57D counted along it
T3 sequence (P31751 146-460 L225A): as the sequence (P31751 146-460, stated change not applied) above, with L80A counted along it

## CC[C@H](C)[C@H](NC(=O)[C@H](Cc1ccc(O)cc1)NC(=O)[C@H](CC(=O)O)NC(=O)[C@H](Cc1ccccc1)NC(=O)[C@H](CC(=O)O)NC(=O)[C@H](CCCNC(=N)N)NC(=O)[C@H](Cc1ccccc1)NC(=O)[C@H](CCSC)NC(=O)[C@H](CCC(=O)O)NC(=O)[C@H](CCC(N)=O)NC(=O)[C@H](CCC(=O)O)NC(=O)[C@H](CCC(=O)O)NC(=O)[C@H](CCC(=O)O)NC(=O)[C@H](CO)NC(=O)[C@H](CC(C)C)NC(=O)[C@@H](NC(=O)[C@H](CCCNC(=N)N)NC(=O)[C@@H]1CCCN1C(=O)[C@H](CCC(=O)O)NC(=O)[C@@H](N)CCCNC(=N)N)[C@@H](C)CC)C(=O)N[C@@H](C)C(=O)N[C@@H](CC(=O)O)C(=O)N[C@@H](Cc1c[nH]c2ccccc12)C(=O)O [PIFtide] (H-REPRILSEEEQEMFRDFDYIADW-OH; N-terminus and C-terminus assumed)
ΔPH-PKB-ΔC
  binding to ΔPH-PKB-ΔC (in words): can bind
ΔPH-PKB-ΔC; ITC
  enthalpy change ΔH: -16.0 kcal/mol
  entropy term TΔS: -9.2 kcal/mol
ΔPH-PKB-ΔC; ITC, read-out: dissociation constant
  Kd: 5.5 µM
PDK1 [1]
  stimulation of PDK1 activity: four-fold
[2]
  responsiveness to PIFtide (in words): almost a complete loss of responsiveness
pΔPH-PKB-ΔC
  Kd: 6 µM
[3]; 130 μM PIFtide
  ability of PIFtide to activate R202D PKB (in words): almost eliminates
[3]; higher concentrations of the peptide
  responsiveness of R202D PKB (in words): more responsive
PDK1 [4]
  effect on thermal stability of PDK1 (in words): greatly increases
[5]
  concentration of maximum and saturable activation: 20 µM
  specific activity of pΔPH-PKB-ΔC maximally activated by PIFtide: 350 nmol/min/mg
[5]; value of PIFtide(D->A) called estimated, read-out: EC50 for activation of pΔPH-PKB-ΔC
  EC50: 3 µM
